Experimental data taken from paper PMC6891749, “[b]-Annulated Halogen-Substituted Indoles as Potential DYRK1A Inhibitors” (Molecules, 2019).
In brackets after ≈: the same amount, converted by molar mass. Counter-ions that a name gives are not always drawn. Like-named read-outs stand apart in the source and are kept apart here.

How the values were obtained:
[1] = target: RnDYRK1A-kd (Rattus norvegicus, UniProt Q63470); assay: ADP-Glo luminescent kinase assay; type: biochemical, Rn; settings: for DYRK1A inhibitory activity (in words): ADP-Glo assay
Experimental: (§1) Protein kinase assays with the derivatives 11–15 were carried out by radiometric methods using protein kinases, reagents, and conditions as described before. The DYRK1A inhibitory activities of the Mannich bases 16, 27 and 28 were assayed in 384-well plates using the ADP-GloTM assay kit (Promega, Madison, WI) according to the recommendations of the manufacturer. This assay is a luminescent ADP detection assay that provides a homogeneous and high-throughput screening method to measure kinase activity by quantifying the amount of ADP produced during a kinase reaction. Briefly, the reactions were carried out in a final volume of 6 µL for 30 min at 30 °C in appropriate kinase buffer, with either protein or peptide as substrate in the presence of 10 µM ATP. After that, 6 µL of ADP-GloTM Kinase Reagent was added to stop the kinase reaction. After an incubation time of 50 min at room temperature (rt), 12 µL of Kinase Detection Reagent was added for one hour at rt. The transmitted signal was measured using the Envision (PerkinElmer, Waltham, MA) microplate luminometer and expressed in Relative Light Units (RLU). In order to determine the half maximal inhibitory concentration (IC50), the assays were performed in duplicate in the absence or presence of increasing doses of the tested compounds. Kinase activities are expressed in % of maximal activity, i.e. measured in the absence of inhibitor. The peptide substrate was obtained from Proteogenix (Schiltigheim, France). RnDYRK1A-kd was assayed in buffer A with 0.033 μg/µl of the peptide […] as substrate (buffer A: 10 mM MgCl2, 1 mM EGTA, 1 mM DTT, 25 mM Tris-HCl pH 7.5, 50 µg/mL heparin). All data points for construction of dose response curves were recorded in triplicate. Typically, the standard deviation of single data points was below 10%.

[2] = Thermodynamic solubility, shake-flask method with HPLC; type: physicochemical; settings: aqueous phosphate buffer, thermodynamic from solid, phosphate buffer pH 7.4, shake-flask, 25 °C, mean value and range, read-out: Sexp., therm., pH 7.4 (thermodynamic solubility)
Experimental: For determination of thermodynamic solubility an aqueous phosphate buffer at pH 7.4 with sodium chloride was used. The buffer was prepared by dissolving Na2HPO4 × 2 H2O (298 mg), KH2PO4 (19 mg) and NaCl (800 mg) in water (100 mL). The pH was adjusted to 7.4 by addition of aq. hydrochloric acid (3 mol/L). The thermodynamic solubility was determined using a shake-flask method with quantification by a buffer-HPLC method. […] The mixtures were shaken at 25 °C and 400 rpm for 24 and 48 h (IKA KS 3000 ic control, IKA-Werke, Staufen, Germany). For each time (24 and 48 h) two independent measurements at two different detection wavelengths (254 and 280 nm) were determined. After 24 h and 48 h the mixtures were inspected for remaining solids. The concentrations in the resulting saturated solutions were quantified by isocratic HPLC with external standard calibration. […] For calibration, a stock solution of the test compounds in DMSO was prepared and diluted with DMSO to suitable concentrations. The AUC at the wavelength 254 nm and 280 nm was used for quantification.

[3] = Kinetic solubility, laser nephelometry; type: physicochemical; settings: for solubility kinetic: aqueous phosphate buffer, aqueous buffer, kinetic from dmso stock, phosphate buffer pH 7.4, nephelometry, mean value and range, read-out: Sexp., kin., pH 7.4 (kinetic solubility)
Experimental: The kinetic solubility was determined using laser nephelometry. A stock solution based on the results of the thermodynamic solubility measurement of the test compounds in DMSO was prepared. The stock solution was diluted with DMSO to get different concentrations. The DMSO dilutions (5 µL) were placed on a 96-well plate filled with aqueous phosphate buffer pH 7.4 (195 µL, same buffer as for thermodynamic solubility). Two dilution series of the stock solution were measured. A blank was determined for every measurement. The well plate was scanned by a nephelometer (Nephelostar Plus, BMG Labtech, Ortenberg, Germany). Precipitated particles scatter the laser light which is detected by the nephelometer. The intensity of the scattered light is assumed to be proportional to the particle concentration in the suspension. The different concentrations were plotted versus the intensities measured by the nephelometer. The resulting kick-off curves led directly to the kinetic solubility by determining the intersection of the linear straight line paralleling the x axis and the linear slope.

[4] = tested on: MAO-A; set-up: method as in PMID 15010457, PMID 20981014; settings: cited from earlier work
[5] = tested on: DYRK1B; set-up: method as in PMID 25264830, PMID 27766861; settings: cited from earlier work
[6] = target: T1, DYRK1A (Homo sapiens, UniProt Q13627); set-up: method as in PMID 25264830, PMID 27766861; settings: cited from earlier work
[7] = tested on: CDK1; set-up: method as in Falke et al. [34]; settings: radiometric; ref Falke et al. [34]; cited from earlier work
[8] = target: CDK9 (Homo sapiens, UniProt P50750); assay: Protein kinase assay, radiometric; type: biochemical; settings: dose response curves, triplicates
Chain of CDK9 (P50750 whole entry, species assumed): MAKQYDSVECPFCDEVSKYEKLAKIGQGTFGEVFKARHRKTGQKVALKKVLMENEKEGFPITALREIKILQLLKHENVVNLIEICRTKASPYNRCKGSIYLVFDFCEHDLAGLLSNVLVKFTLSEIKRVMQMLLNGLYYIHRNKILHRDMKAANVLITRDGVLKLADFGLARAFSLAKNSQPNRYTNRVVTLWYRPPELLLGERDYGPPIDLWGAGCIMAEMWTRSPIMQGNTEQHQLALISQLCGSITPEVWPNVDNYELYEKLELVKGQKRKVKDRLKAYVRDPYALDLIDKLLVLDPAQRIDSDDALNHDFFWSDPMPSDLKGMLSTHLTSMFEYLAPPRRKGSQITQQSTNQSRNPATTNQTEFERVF
Chain of CDK9 (O60563 whole entry partner, species assumed): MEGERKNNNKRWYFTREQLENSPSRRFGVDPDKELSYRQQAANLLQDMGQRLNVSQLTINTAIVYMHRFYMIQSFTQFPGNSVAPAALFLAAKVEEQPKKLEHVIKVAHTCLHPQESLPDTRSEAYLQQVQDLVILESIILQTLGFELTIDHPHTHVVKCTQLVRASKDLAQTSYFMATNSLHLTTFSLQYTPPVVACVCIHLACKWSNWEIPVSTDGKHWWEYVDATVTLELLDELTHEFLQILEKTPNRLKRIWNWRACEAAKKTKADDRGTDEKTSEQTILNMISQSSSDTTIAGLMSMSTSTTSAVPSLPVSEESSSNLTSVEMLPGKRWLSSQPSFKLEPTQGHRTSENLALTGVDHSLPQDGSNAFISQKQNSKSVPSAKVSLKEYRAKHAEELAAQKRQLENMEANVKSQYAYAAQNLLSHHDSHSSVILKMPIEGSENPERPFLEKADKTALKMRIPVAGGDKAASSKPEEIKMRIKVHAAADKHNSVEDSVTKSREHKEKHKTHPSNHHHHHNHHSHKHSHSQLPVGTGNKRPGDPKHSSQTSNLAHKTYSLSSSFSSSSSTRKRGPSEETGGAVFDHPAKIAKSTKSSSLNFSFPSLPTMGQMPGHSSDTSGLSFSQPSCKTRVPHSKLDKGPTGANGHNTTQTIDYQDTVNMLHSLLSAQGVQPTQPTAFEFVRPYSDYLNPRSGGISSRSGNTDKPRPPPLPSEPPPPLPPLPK
Experimental: (§2) The new compounds 11–16 were tested on an array of protein kinases of the CMGC family. First, the kinases were incubated with 10 µM solutions of the test compounds and the residual activities compared to controls were measured. The IC50 values of promising compounds were then determined from concentration-response curves (Table 1).
as §1

[9] = target: CDK2 (Homo sapiens, UniProt P24941); assay: Protein kinase assay, radiometric; type: biochemical; settings: dose response curves, triplicates
Experimental: as §2, §1

[10] = target: CK1; assay: Protein kinase assay, radiometric; type: biochemical; settings: dose response curves, triplicates
Experimental: as §2, §1

[11] = target: CDK1; assay: Protein kinase assay, radiometric; type: biochemical; settings: dose response curves, triplicates
Experimental: as §2, §1

[12] = target: CLK1 (Mus musculus, UniProt P22518); assay: Protein kinase assay, radiometric; type: biochemical; settings: dose response curves, triplicates
Chain of CLK1 (P22518 whole entry): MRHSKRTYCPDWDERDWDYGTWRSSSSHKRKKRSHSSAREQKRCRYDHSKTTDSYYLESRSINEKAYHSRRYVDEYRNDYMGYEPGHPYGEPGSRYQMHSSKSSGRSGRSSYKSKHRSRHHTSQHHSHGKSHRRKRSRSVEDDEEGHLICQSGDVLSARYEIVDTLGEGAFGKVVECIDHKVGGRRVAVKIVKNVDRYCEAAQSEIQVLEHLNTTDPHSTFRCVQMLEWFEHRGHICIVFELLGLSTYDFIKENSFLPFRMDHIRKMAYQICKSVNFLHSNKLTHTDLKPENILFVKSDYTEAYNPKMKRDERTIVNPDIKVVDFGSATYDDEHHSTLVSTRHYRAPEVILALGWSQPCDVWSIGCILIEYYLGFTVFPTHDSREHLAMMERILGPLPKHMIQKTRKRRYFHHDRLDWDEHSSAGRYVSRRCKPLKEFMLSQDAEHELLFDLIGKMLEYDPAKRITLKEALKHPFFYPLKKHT
Experimental: as §2, §1

[13] = target: GSK-3; assay: Protein kinase assay, radiometric; type: biochemical; settings: dose response curves, triplicates
Experimental: as §2, §1

[14] = target: CDK5 (Homo sapiens, UniProt Q00535); assay: Protein kinase assay, radiometric; type: biochemical; settings: dose response curves, triplicates
Chain of CDK5 (Q00535 whole entry, species assumed): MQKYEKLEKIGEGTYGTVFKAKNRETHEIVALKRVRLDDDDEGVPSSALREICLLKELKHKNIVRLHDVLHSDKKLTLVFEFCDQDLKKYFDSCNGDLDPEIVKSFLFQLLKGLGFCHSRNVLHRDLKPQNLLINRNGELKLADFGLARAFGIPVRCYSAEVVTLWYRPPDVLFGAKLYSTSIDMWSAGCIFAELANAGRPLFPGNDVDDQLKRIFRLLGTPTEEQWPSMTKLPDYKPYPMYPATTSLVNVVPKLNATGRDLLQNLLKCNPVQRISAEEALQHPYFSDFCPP
Chain of CDK5 (Q15078 99-307 partner limits assumed, species assumed): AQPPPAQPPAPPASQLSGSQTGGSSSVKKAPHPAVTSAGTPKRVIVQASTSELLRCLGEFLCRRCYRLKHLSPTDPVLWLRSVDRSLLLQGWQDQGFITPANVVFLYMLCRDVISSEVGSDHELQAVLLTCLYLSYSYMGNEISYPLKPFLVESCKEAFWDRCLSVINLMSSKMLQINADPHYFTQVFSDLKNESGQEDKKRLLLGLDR
Experimental: as §2, §1

[15] = target: T1, DYRK1A; assay: Protein kinase assay, radiometric; type: biochemical; settings: dose response curves, triplicates
Experimental: as §2, §1

| Compound | IC50 [8] [nM] | IC50 [9] [nM] | IC50 [10] [nM] | IC50 [11] [nM] | IC50 [12] [nM] | IC50 [13] [nM] | IC50 [14] [nM] | IC50 [15] [nM] | other results |
| --- | --- | --- | --- | --- | --- | --- | --- | --- | --- |
| O=C1c2c([nH]c3c(Cl)cccc23)CCC1CN1CCCCC1 (racemic) [compound 16, (R,S)-8-Chloro-3-(piperidin-1-ylmethyl)-1,2,3,9-tetrahydro-4H-carbazol-4-one hydrochloride] | – | – | – | – | – | – | – | – | DYRK1A inhibitory activity (in words) [1]: complete loss of DYRK1A inhibitory activity; IC50 ([1]; ADP-Glo assay kit, 10 µM ATP, read-out: IC50 DYRK1A): > 10000 nM; solubility thermodynamic [2]: 13600 µM; solubility kinetic [3]: 2310 µM |
| O=C1c2c([nH]c3c(Cl)cccc23)CCC1CN1CCOCC1 (racemic) [compound 27, (R,S)-8-Chloro-3-(morpholinomethyl)-1,2,3,9-tetrahydro-4H-carbazol-4-one hydrochloride] | – | – | – | – | – | – | – | – | DYRK1A inhibitory activity (in words) [1]: inactive |
| CN(C)CC1CCc2[nH]c3c(Cl)cccc3c2C1=O (racemic) [compound 28, (R,S)-8-Chloro-3-[(dimethylamino)methyl]-1,2,3,9-tetrahydro-4H-carbazol-4-one hydrochloride] | – | – | – | – | – | – | – | – | DYRK1A inhibitory activity (in words) [1]: inactive |
| CCN1/C(=C/C(C)=O)Sc2ccc(O)cc21 [compound 4] | – | – | – | – | – | – | – | – | MAO-A inhibition [4]: no MAO-A inhibition |
| COC(=N)c1nc2ccc3ncnc(Nc4ccc(Cl)cc4Cl)c3c2s1 [compound 7] | – | – | – | – | – | – | – | – | Activity on DYRK1B [5]: subnanomolar; Activity on DYRK1A [6]: subnanomolar |
| O=C(O)c1nc2ccccc2c2[nH]c3c(I)cccc3c12 [compound 10, reference compound] | – | – | – | – | – | – | – | – | IC50 [7]: > 10000 nM; solubility thermodynamic [2]: < 5 µM; solubility kinetic [3]: 5.28 µM (≈ 2.05 µg/mL) |
| O=c1ccccc2[nH]c3c(Cl)cccc3c12 [compound 11, 4-Chlorocyclohepta[b]indol-10(5H)-one] | > 10000 | > 10000 | > 10000 | > 10000 | 170 | > 10000 | > 10000 | 200 | solubility thermodynamic [2]: < 5 µM; solubility kinetic [3]: 26.1 µM (≈ 5.99 µg/mL); Improvement of kinetic solubility compared to 10 ([3]; phosphate buffer pH 7.4): fivefold improved solubility |
| O=C1CCc2[nH]c3c(Cl)cccc3c21 [compound 12, 5-Chloro-3,4-dihydrocyclopenta[b]indol-1(2H)-one] | > 10000 | > 10000 | > 10000 | > 10000 | 890 | > 10000 | > 10000 | 710 | – |
| O=C1CCCc2[nH]c3c(Cl)cccc3c21 [compound 13, 8-Chloro-1,2,3,9-tetrahydro-4H-carbazol-4-one] | – | – | > 10000 | – | 300 | 4400 | 8200 | 1600 | – |
| O=C1NCCc2[nH]c3c(Cl)cccc3c21 [compound 14, 6-Chloro-2,3,4,5-tetrahydro-1H-pyrido[4,3-b]indol-1-one] | 880 | 1700 | 3600 | 1200 | 120 | 2700 | 810 | 190 | – |
| O=C1NCCCc2[nH]c3c(Cl)cccc3c21 [compound 15, 7-Chloro-3,4,5,6-tetrahydroazepino[4,3-b]indol-1(2H)-one] | 2200 | 2500 | 4200 | 7000 | 320 | > 10000 | 2500 | 2200 | – |
